This experiment deals with M. tuberculosis H37Rv growth inhibition with meropenem. The experiment is described as follows: dose response, H37Rv, with and without meropenem (AID 434987).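 Note: growth over 7 days at 37 °C before Alamar Blue read on day 9.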
Setting [1] is: M. tuberculosis H37Rv growth inhibition, measured here: IC50 without meropenem.
Setting [2] is: M. tuberculosis H37Rv growth inhibition, measured here: IC90 without meropenem.
[3] abbreviates: measured here: IC90 with meropenem.

The source made the active and inactive calls. The rule behind the calls is not given here. A value given as a limit tells only on which side of the number the result lay.

`CCOC(=O)c1sc(NC(=O)Nc2ccc(Cl)cc2)cc1C`: the IC50 is > 100 µM (inactive). In addition, under setting [1], the IC50 is over 100 µM. For the same compound, under setting [2], the IC90 is over 100 µM. The IC90 under setting [3] was over 100 µM.
As to `CC(=O)Nc1cccc(/C(C)=N/NC(N)=S)c1`, the IC50 was 7.9 µM. In addition, the IC50 under setting [1] was over 100 µM. The compound also showed a 90% effect concentration (IC90) under setting [2] of over 100 µM. The compound further gave an IC90 under setting [3] of 28.6 µM.
On to `COCCOC(=O)c1c(C)oc2ccc(OC(=O)c3c(OC)cccc3OC)cc12`, for which the IC50 is > 100 µM (inactive). Under setting [1], the IC50 was over 100 µM. This compound showed an IC90 under setting [2] of over 100 µM. Further, under setting [3], the IC90 is over 100 µM.
Take `O=C(N/N=C/c1cc([N+](=O)[O-])ccc1O)C1CC1`: the IC50 is 4.14 µM. Further, the IC50 under setting [1] came to 58.9 µM. The IC90 under setting [2] is over 100 µM. Under setting [3], this compound displayed an IC90 of over 100 µM.
On to `O=C(CSc1nnc(SCc2ccccc2)s1)N/N=C/c1ccc(Cl)cc1Cl`, for which the IC50 was 72.2 µM (inactive). Under setting [1], this compound yielded an IC50 of over 100 µM. The compound also came in with an IC90 under setting [2] of over 100 µM. Under setting [3], this compound had an IC90 of over 100 µM.
For the compound `Cc1cccc(OCc2nc(-c3ccccn3)n[nH]2)c1`, the IC50 is 3.43 µM. In addition, under setting [1], the IC50 stood at 22.5 µM. Under setting [2], the IC90 was determined as 25.6 µM. Under setting [3], this compound had an IC90 of 7.37 µM.
With `Cc1ccc(C)c(NC(=O)COC(=O)c2ccc(S(=O)(=O)N3CCCCC3)cc2)c1`, the IC50 was > 100 µM (inactive). The same compound had an IC50 under setting [1] of over 100 µM. Moreover, under setting [2], the concentration for an effect of 90% (IC90) was over 100 µM. The compound further displayed an IC90 under setting [3] of over 100 µM.
Turning to `Cc1c(C(=O)Nc2cccnc2)oc2ccc(Br)cc12`, the IC50 was > 100 µM (inactive). The half-maximal inhibitory concentration (IC50) under setting [1] is over 100 µM. Also, the IC90 under setting [2] was over 100 µM. For the same compound, the IC90 under setting [3] is over 100 µM.
Turning to `COc1ccc(C(=O)Nc2nc3ccccc3s2)c(OC)c1`, the IC50 is > 100 µM (inactive). Moreover, under setting [1], the IC50 is over 100 µM. The IC90 under setting [2] is over 100 µM. For the same compound, the IC90 under setting [3] is over 100 µM.
Consider `CC(C)(C)c1nc2scc(-c3cccs3)c2c(=O)o1`, for which the IC50 was > 100 µM (inactive). The compound further returned an IC50 under setting [1] of over 100 µM. The compound also had an IC90 under setting [2] of over 100 µM. Under setting [3], the IC90 is over 100 µM.
In the case of `COc1ccc(-c2sc3cc(OC)c(OC)cc3c2C#CCCO)cc1`, the IC50 is > 100 µM (inactive). This compound also yielded an IC50 under setting [1] of over 50 µM. Moreover, the IC90 under setting [2] is over 50 µM. Under setting [3], the IC90 was over 100 µM.
Turning to `Cc1noc(NS(=O)(=O)c2ccc(N/C=C\C(=O)c3ccc4c(c3)OCO4)cc2)c1C`, the IC50 is 34.2 µM. For the same compound, the half-maximal inhibitory concentration (IC50) under setting [1] was determined as 91.5 µM. Besides, the IC90 under setting [2] is over 100 µM. Under setting [3], this compound yielded an IC90 of 86 µM.
On to `CC(=O)Nc1scc(C)c1-c1nc2ccccc2s1`, for which the IC50 is > 100 µM (inactive). This compound gave an IC50 under setting [1] of over 100 µM. Moreover, the IC90 under setting [2] is over 100 µM. The compound also came in with an IC90 under setting [3] of over 100 µM.
With `CC(C)CC(=O)NC(=S)Nc1ccc(N2CCN(C(=O)c3cccs3)CC2)cc1`, the IC50 was > 100 µM (inactive). This compound yielded a 50% inhibitory concentration (IC50) under setting [1] of over 100 µM. Further, under setting [2], the IC90 was over 100 µM. Besides, the concentration for an effect of 90% (IC90) under setting [3] was over 100 µM.
Regarding `O=C(CNc1ccccc1Cl)Nc1cc(S(=O)(=O)N2CCOCC2)ccc1Cl`, the IC50 is > 100 µM (inactive). Besides, the IC50 under setting [1] is over 100 µM. Also, the IC90 under setting [2] is over 100 µM. The compound also registered an IC90 under setting [3] of over 100 µM.
For `CN(C)C(=O)c1ccc(-n2nc(C(F)(F)F)c3c2CCCC3)cc1`, the IC50 is > 100 µM (inactive). Under setting [1], the half-maximal inhibitory concentration (IC50) was over 100 µM. Also, the IC90 under setting [2] was over 100 µM. Besides, the 90% effect concentration (IC90) under setting [3] was over 100 µM.
Regarding `Cc1cccc2c(C(=O)n3cccn3)cc(-c3ccccc3Cl)nc12`, the IC50 was 7.95 µM. The compound further showed an IC50 under setting [1] of 52.7 µM. The concentration for an effect of 90% (IC90) under setting [2] is over 100 µM. Under setting [3], this compound registered an IC90 of 26.8 µM.
With `O=C(CSc1ncn[nH]1)Nc1cccc2ccccc12`, the IC50 is 29.6 µM (inactive). Under setting [1], the IC50 was 50.7 µM. The IC90 under setting [2] was over 100 µM. The compound further displayed a 90% effect concentration (IC90) under setting [3] of 65 µM.
Take `Cc1ccc(NC(=O)CSc2n[nH]c(-c3ccco3)n2)cc1`: the IC50 was > 100 µM (inactive). For the same compound, under setting [1], the IC50 is over 100 µM. In addition, under setting [2], the 90% effect concentration (IC90) was over 100 µM. Moreover, under setting [3], the concentration for an effect of 90% (IC90) was over 100 µM.
With `C=CCNCCCOc1ccc(Cl)cc1C(C)(C)C`, the IC50 is 48.1 µM (inactive). Also, the concentration for half-maximal inhibition (IC50) under setting [1] turned out to be 58.2 µM. Moreover, the IC90 under setting [2] was found to be 72.3 µM. This compound yielded an IC90 under setting [3] of 52.6 µM.
With `O=C(c1cccc(Cl)c1)N1CCN(Cc2ccccc2F)CC1`, the IC50 is > 100 µM (inactive). The compound further returned an IC50 under setting [1] of over 100 µM. Moreover, the IC90 under setting [2] was over 100 µM. Further, the IC90 under setting [3] was over 100 µM.
For `O=C(Nc1ccc(Cl)cc1)C1CC2CCCC(C1)C2=O` (configuration not stated), the IC50 is > 100 µM (inactive). This compound also had an IC50 under setting [1] of over 100 µM. Also, the IC90 under setting [2] was over 100 µM. Moreover, the IC90 under setting [3] was over 100 µM.
`O=C1CCNc2c(Cl)cccc21`: the IC50 is > 100 µM (inactive). Besides, the IC50 under setting [1] was over 100 µM. Under setting [2], the IC90 is over 100 µM. Further, under setting [3], the IC90 was over 100 µM.

As a reminder, the IC50 is the concentration needed to halve the response being measured. A word on the IC90: it is the concentration at which the effect reaches the 90% level. Read a low IC90 as an effect from little substance.

(Values after PubChem BioAssay AID434987 (Southern Research Specialized Biocontainment Screening …, 2010).)
